This is an account of results in article PMC8837603, “Lapcin, a potent dual topoisomerase I/II inhibitor discovered by soil metagenome guided total chemical synthesis” (Nature Communications, 2022).

Entries after “also recorded” stand apart in the source; their conditions may differ.

For one series, the target named is T1, E. coli gyrase (Escherichia coli, UniProt P0AES4+P0AES6).
T1 construct: purchased TopoGen, USA
Nature of the series: DNA gyrase supercoiling assay. The series is classed as biochemical. As for the experimental part:
The DNA gyrase supercoiling assay was conducted with an E. coli gyrase supercoiling kit (TopoGen, USA) in this assay. Ciprofloxacin (Sigma, USA) was used as the positive control. Assay was performed according to the manufacture’s protocol. […] The final volume of the reaction was adjusted to 19 µL with H2O. Finally, 1 µL of fresh diluted E. coli gyrase (1U) was added into the reaction mixture and incubated at 37 °C for 60 min. The reaction was terminated by addition of 2 µL of 10% SDS and 2 µL of 50 µg/mL proteinase K followed by a 30 min at 37 °C. The reaction was then extracted with 20 µL of chloroform/isoamyl alcohol (v:v, 24:1). The aqueous material loaded a on 1% (w/v) agarose gel and separated at 140 v for 1 hour in 0.5% TBE buffer. The gel was visualized using ethidium bromide staining. The intensity of SC plasmid bands was quantified using Analytik Jena image software. The intensity of SC bands was used in the determination of IC50 of tested compounds and the curve were drawn in Prism 9 (9.0.0). The assay was performed in triplicate (n = 3).

Series [1] concerns diverse microbial pathogens. Nature of the series: Antimicrobial/antifungal susceptibility, whole panel. The note with it: at the highest concentration tested. In kind it is cell-based. As for the experimental part:
Lapcin was tested for antimicrobial activity against the bacteria and fungi shown in Supplementary Table 4. […] Ciprofloxacin (Sigma, USA) and Nystatin (Sigma, USA) were used as positive control for bacteria and fungi, respectively. Lapcin was dissolved in sterile DMSO to make a 3.2 mg/mL working solution. Lapcin was diluted across 96-well plates using a 2-fold serial dilution method to give a concentration range of 64 to 0.06 µg/mL in 50 µL of LB broth. A single colony of each test organism was grown in either 5 mL LB (bacteria) or YPD (fungi) medium overnight at 37 °C or 30 °C, respectively. Saturated overnight cultures were diluted 5,000-fold, and then 50 µL of dilute cells were transferred into each well of the assay plates. Finally, each well contains a total volume of 100 µL.

The subject of series [2] is Acinetobacter baumannii ATCC17978. The note with it: LB, 16 h, 37 °C, n = 2. Here is the method: (§1) Lapcin was tested for antimicrobial activity against the bacteria and fungi shown in Supplementary Table 4. […] Lapcin was dissolved in sterile DMSO to make a 3.2 mg/mL working solution. Lapcin was diluted across 96-well plates using a 2-fold serial dilution method to give a concentration range of 64 to 0.06 µg/mL in 50 µL of LB broth. A single colony of each test organism was grown in either 5 mL LB (bacteria) or YPD (fungi) medium overnight at 37 °C or 30 °C, respectively. Saturated overnight cultures were diluted 5,000-fold, and then 50 µL of dilute cells were transferred into each well of the assay plates. Finally, each well contains a total volume of 100 µL.

Series [3] relates to Enterobacter cloacae ATCC13047. The settings on record: LB, 16 h, 37 °C, n = 2. Here is the method: as §1
In series [4] the test system is Klebsiella pneumonia ATCC10031. The settings on record: LB, 16 h, 37 °C, n = 2. Here is the method: as §1
The next series addresses T2, Human Topoisomerase I (Homo sapiens, UniProt P11387).
T2 construct: purchased Inspiralis, UK
T2 sequence (P11387 1-765): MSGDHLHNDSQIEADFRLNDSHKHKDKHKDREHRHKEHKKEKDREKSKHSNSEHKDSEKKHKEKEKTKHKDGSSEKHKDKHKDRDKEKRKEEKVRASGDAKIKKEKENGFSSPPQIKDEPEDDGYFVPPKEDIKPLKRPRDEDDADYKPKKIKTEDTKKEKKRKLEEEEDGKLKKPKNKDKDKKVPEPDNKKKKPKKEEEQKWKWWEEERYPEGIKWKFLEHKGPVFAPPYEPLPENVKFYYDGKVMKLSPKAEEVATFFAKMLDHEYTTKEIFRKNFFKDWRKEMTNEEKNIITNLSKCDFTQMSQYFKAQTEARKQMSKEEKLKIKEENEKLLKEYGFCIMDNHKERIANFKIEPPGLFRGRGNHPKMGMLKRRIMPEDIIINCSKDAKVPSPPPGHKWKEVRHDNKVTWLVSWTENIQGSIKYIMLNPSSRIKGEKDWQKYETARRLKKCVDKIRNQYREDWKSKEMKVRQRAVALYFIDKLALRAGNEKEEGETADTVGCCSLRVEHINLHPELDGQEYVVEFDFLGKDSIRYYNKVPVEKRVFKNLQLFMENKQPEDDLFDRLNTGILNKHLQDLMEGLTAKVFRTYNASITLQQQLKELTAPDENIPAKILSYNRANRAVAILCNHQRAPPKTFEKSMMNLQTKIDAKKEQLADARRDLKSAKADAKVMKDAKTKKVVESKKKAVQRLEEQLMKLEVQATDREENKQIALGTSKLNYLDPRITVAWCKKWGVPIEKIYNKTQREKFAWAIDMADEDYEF
Briefly: Human Topoisomerase I DNA relaxation assay. The series is classed as biochemical. Here is the method:
All values were normalized to the negative control wells. […] All experiments were performed in triplicate (n = 3).

Another series has as its system human cancer cell lines. Nature of the series: MTT cell viability assay, whole cell line panel. The series is classed as cell-based. Here is the method:
An MTT (2-(4,5-dimethylthiazol-2-yl)−2,5-diphenyltetrazolium bromide) assay was used to determine the cytotoxicity of lapcin towards diverse cancer cell lines. Lapcin was dissolved in DMSO to make a 3.2 mg/mL working solution. For each cancer line detailed in Supplementary Table 5, cells at 80-90% confluency were counted and seeded in 96-well, flat bottom microplates and incubated at 37 °C with a 5% CO2 atmosphere. Outer wells were unused to avoid edge effects. After adhering for 24 h, the medium was sterilely aspirated and replaced with 100 µL of fresh medium containing lapcin or a control compound serially diluted at concentrations ranging from 8,000 to 0.00382 ng/mL. After 48 h (37 °C, 5% CO2), the medium was carefully removed and 110 µL of freshly prepared MTT solution (10 µL of 5 mg/mL MTT in PBS (pH 7.4) premixed with 100 µL of complete medium) was added to each well. After 3 h at 37 °C with 5% CO2, 100 µL of solubilization solution (40% DMF, 16% SDS and 2% acetic acid in H2O) was added to each well and precipitated formazan crystals were allowed to dissolve for 4 h. The absorbance of each well was then measured at 570 nm using a Tecan microplate reader.

T1 sequence (P0AES4 whole entry, one chain of several): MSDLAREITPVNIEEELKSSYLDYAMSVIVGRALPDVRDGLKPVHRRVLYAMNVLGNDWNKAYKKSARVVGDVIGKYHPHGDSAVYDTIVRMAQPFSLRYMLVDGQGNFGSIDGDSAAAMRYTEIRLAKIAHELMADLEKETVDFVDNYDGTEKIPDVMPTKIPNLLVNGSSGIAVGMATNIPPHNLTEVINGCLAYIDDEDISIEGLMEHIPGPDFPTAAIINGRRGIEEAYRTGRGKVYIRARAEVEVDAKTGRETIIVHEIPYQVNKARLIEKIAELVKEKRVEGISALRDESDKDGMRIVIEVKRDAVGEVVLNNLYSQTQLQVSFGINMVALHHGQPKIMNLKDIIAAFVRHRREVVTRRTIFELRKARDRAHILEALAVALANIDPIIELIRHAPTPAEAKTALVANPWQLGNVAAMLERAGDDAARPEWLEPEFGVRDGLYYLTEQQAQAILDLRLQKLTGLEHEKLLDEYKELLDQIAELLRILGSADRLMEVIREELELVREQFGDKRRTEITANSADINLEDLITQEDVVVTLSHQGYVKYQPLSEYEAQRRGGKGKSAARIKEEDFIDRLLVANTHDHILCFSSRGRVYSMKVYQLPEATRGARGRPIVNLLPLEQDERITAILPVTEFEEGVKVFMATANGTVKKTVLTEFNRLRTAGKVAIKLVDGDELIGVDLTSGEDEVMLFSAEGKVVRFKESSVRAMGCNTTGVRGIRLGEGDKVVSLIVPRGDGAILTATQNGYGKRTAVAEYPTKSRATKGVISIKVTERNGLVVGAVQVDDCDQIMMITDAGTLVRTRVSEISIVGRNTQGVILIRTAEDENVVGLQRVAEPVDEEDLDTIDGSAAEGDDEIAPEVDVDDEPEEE

Turning to `CCCCCCCCCCCC(O)CC(=O)N[C@@H](C)C(=O)N[C@@H](CO)C(=O)N[C@@H](C)C(=O)Nc1ccc(-c2nc(-c3nc(C(=O)N[C@@H](CC(N)=O)C(=O)Nc4ccc(C(=O)Nc5ccc(C(=O)Nc6ccc(C(=O)O)cc6)c(O)c5OC(C)C)cc4)cs3)cs2)cc1` (stereo partly drawn) [Lapcin, 4-(4-(4-((2S)-4-amino-2-(2'-(4-((2S)-2-((2S)-3-hydroxy-2-((2S)-2-(3-hydroxytetradecanamido)propanamido)propanamido)propanamido)phenyl)-[2,4'-bithiazole]-4-carboxamido)-4-oxobutanamido)benzamido)-2-hydroxy-3-isopropoxybenzamido)benzoic acid], the IC50 at E. coli gyrase is over 20.5 µM; against Human Topoisomerase I (supercoiled pBR322, 30 min, 37 °C, gel, ethidium bromide, n = 3) it was 2170 nM. Moreover, in series [1], the “antimicrobial or antifungal activity” value is on record as “no antimicrobial or antifungal activity”. The “MIC, Acinetobacter baumannii” value in series [2] is over 32 µg/mL. Besides, the “MIC, Enterobacter cloacae” value in series [3] was over 32 µg/mL. Besides, the “MIC, Klebsiella pneumonia” value in series [4] is on record as over 32 µg/mL. Also, the “fold more potent than camptothecin, topoisomerase I” value at Human Topoisomerase I is given as 14 times. Besides, the “difference in IC50 between non-cancerous HEK293 and most susceptible cell lines” value in the series with human cancer cell lines (Table 1 IC50s, therapeutic window) is recorded as “over 3 orders of magnitude”. Further, in the series with human cancer cell lines (all cell lines except NCI-H226), the “potency relative to etoposide in cell lines” value is on record as “more potent than the topoisomerase II inhibitor etoposide”. In the series on human cancer cell lines (breast, lung, colon, bone and cervical cancer cell lines, MTT, 48 h), the “cytotoxic potency (IC50) in words” value is on record as “nM to pM IC50s; also recorded: potent human cancer cell line toxin; also recorded: nM to pM (IC50) inhibitor”. Moreover, the “potency relative to camptothecin in cell lines” value in the series with human cancer cell lines (exception of HCT116, HCC1806 and NCI-H226) is on record as “more potent than the topoisomerase I inhibitor camptothecin”. Further, in the series on human cancer cell lines (reported p53 expression levels of the cell lines tested), the “correlation of activity with p53 expression” value is “general correlation between lapcin activity and reported p53 expression levels”.
